Laboratory results reported in patent US10946016B2, “Solid forms of an epidermal growth factor receptor kinase inhibitor” (Celgene CAR LLC, priority 2012, dated 2021).

How the values were obtained:
[1] = tested on: human non-small cell lung cancer cell; test: Non-small cell lung cancer cell proliferation in vivo
mutant EGFR kinase = test: Enzymatic and cellular assays of EGFR kinase inhibition; format: biochemical
[2] = tested on: human non-small cell lung cancer cell; test: Non-small cell lung cancer cell proliferation in vitro; format: cell-based
[3] = Stability at 40° C./75% RH for 1 week and 2 weeks (XRPD and HPLC); format: physicochemical; details: open container
Procedure: Samples of each form were exposed to an environment of 40° C./75% RH for 1 week and 2 week periods to determine stability. Resulting solids were analysed by XRPD and HPLC to establish if any changes had occurred.

[4] = Dynamic vapour sorption (DVS) with post DVS XRPD; format: physicochemical
Procedure: For dynamic vapour sorption (DVS), approximately 10 mg of sample was placed into a wire mesh vapour sorption balance pan and loaded into a DVS-1 dynamic vapour sorption balance by Surface Measurement Systems. The sample was subjected to a ramping profile from 20-90% relative humidity (RH) at 10% increments, maintaining the sample at each step until a stable weight had been achieved (99.5% step completion). After completion of the sorption cycle, the sample was dried using the same procedure, but all the way down to 0% RH and finally taken back to the starting point of 20% RH. The weight change during the sorption/desorption cycles were plotted, allowing for the hygroscopic nature of the sample to be determined.

[5] = Competitive slurries at ambient and 60° C. (polymorph stability studies); format: physicochemical; details: slurrying at ambient and 60° C.
Procedure: The results from the competitive slurries carried out at ambient (ca. 22° C.) and 60° C. are tabulated below.

[6] = Aqueous solubility: slurries in deionised water, HPLC; format: physicochemical; details: slurry in deionised water shaken ca. 24 hours
Procedure: Slurries of all each polymorphic form were created in deionised water and shaken for ca. 24 hours. The resulting solid was then analysed by HPLC to determine the concentration of material dissolved.

[7] = XRPD after heating or drying (solid form conversion); format: physicochemical; details: heated to 115° C.
Procedure: X-ray powder diffraction (XRPD) analysis was carried out on a Siemens D5000, scanning the samples between 3 and 30 or 50° 2-theta. For samples <100 mg, ca. 5-10 mg of sample was gently compressed onto a glass slide which fitted into the sample holder. For samples >100 mg, ca. 100 mg of sample was gently compressed into a plastic sample holder, so that the sample surface was smooth and just above the level of the sample holder. Measurements were made as follows: In order to determine the relationship between Forms A and B, a sample of Form B was heated to 120° C. and then XRPD analysis was carried out. […] To determine whether Form C remains the same after losing the solvent present, a sample of Form C was heated to 120° C. (i.e., just past the temperature at which the solvent is removed) and then XRPD analysis was carried out. […] In order to determine whether Form E remains the same after losing the solvent present, a sample of Form E was heated to 120° C. (i.e., just past the temperature at which the solvent is lost) and then XRPD analysis was carried out. […] In order to determine whether Form F remains the same after losing the solvent present, a sample of Form F was heated to 120° C. (i.e., just past the temperature at which the solvent is lost) and then XRPD analysis was carried out. […] To examine whether Form H changes to Form A after heating to 115° C. (point after the solvent loss), the Form H material was heated to 115° C. and XRPD analysis and DSC analysis were then carried out. […] The DSC analysis (FIG. 49) indicated overlapping endotherms between ca. 115-135° C., followed by an exotherm at peak 143.9° C., likely indicating a polymorphic transition. A final endotherm was present at onset 202.7° C. (peak 206.6° C.) corresponding with the Form A melt.

[8] = TGA of dehydrated material after standing on the bench (water pick-up); format: physicochemical; details: heated to 115° C., then on the bench ca. 1 hour at ambient
Procedure: To test whether Form H picks up water after desolvating/dehydrating the material by heating to 115° C., a further test was carried out whereby Form H was heated to 115° C. in a TGA pan. The sample was then removed from the TGA pan and allowed to sit on the bench for ca. 1 hour. After 1 hour, another TGA was carried out up to 115° C. […] (FIG. 51).

C=CC(=O)Nc1cccc(Nc2nc(Nc3ccc(N4CCN(C(C)=O)CC4)cc3OC)ncc2C(F)(F)F)c1 [Compound 1, N-(3-(2-(4-(4-acetylpiperazin-1-yl)-2-methoxyphenylamino)-5-(trifluoromethyl)pyrimidin-4-ylamino)phenyl)acrylamide]
inhibition of cell proliferation [1]: inhibit human non-small cell lung cancer cell proliferation | selectivity for mutant EGFR as compared to wild-type EGFR (mutant EGFR kinase): selective inhibitor of at least one mutation of EGFR | inhibition of mutant EGFR kinase (mutant EGFR kinase; enzymatic and cellular assays): selective covalent, irreversible inhibition of mutant EGFR kinase | inhibition of cell proliferation [2]: inhibit human non-small cell lung cancer cell proliferation

C=CC(=O)Nc1cccc(Nc2nc(Nc3ccc(N4CCN(C(C)=O)CC4)cc3OC)ncc2C(F)(F)F)c1 [Form A, N-(3-(2-(4-(4-acetylpiperazin-1-yl)-2-methoxyphenylamino)-5-(trifluoromethyl)pyrimidin-4-ylamino)phenyl)acrylamide]
HPLC purity after storage ([3]; 1 week): ca. 97.5% | XRPD analysis after storage ([3]; 1 week): still be consistent with Form A, with some loss in crystallinity | HPLC purity after storage ([3]; 2 week): ca. 96.3% | XRPD analysis after storage ([3]; 2 week): still be consistent with Form A, however, it became poorly crystalline | Post DVS XRPD (solid form) [4]: remained Form A | hygroscopicity (DVS) [4]: non-hygroscopic | DVS water uptake ([4]; between 20 and 70% RH): 0.87% | relative polymorph stability [5]: likely the more stable form in comparison with Form B | detection by HPLC analysis for the aqueous solubility [6]: could not be detected | aqueous solubility ([6]; assessment in words): poor

C=CC(=O)Nc1cccc(Nc2nc(Nc3ccc(N4CCN(C(C)=O)CC4)cc3OC)ncc2C(F)(F)F)c1 [Form H, N-(3-(2-(4-(4-acetylpiperazin-1-yl)-2-methoxyphenylamino)-5-(trifluoromethyl)pyrimidin-4-ylamino)phenyl)acrylamide]
XRPD after heating [7]: still corresponded with Form H, with some loss in crystallinity | water pick-up of desolvated/dehydrated material [8]: picked up water upon standing at ambient conditions
